# Publication PMC5651862 (Scientific Reports, 2017)
# Legend:
# full-length human PPARγ = biological target: T1, full-length human PPARγ (Homo sapiens, UniProt P37231); assay: PPARγ-dependent luciferase reporter gene transactivation in HEK293 cells
# T1 sequence (P37231 1-477 isoform P37231-2): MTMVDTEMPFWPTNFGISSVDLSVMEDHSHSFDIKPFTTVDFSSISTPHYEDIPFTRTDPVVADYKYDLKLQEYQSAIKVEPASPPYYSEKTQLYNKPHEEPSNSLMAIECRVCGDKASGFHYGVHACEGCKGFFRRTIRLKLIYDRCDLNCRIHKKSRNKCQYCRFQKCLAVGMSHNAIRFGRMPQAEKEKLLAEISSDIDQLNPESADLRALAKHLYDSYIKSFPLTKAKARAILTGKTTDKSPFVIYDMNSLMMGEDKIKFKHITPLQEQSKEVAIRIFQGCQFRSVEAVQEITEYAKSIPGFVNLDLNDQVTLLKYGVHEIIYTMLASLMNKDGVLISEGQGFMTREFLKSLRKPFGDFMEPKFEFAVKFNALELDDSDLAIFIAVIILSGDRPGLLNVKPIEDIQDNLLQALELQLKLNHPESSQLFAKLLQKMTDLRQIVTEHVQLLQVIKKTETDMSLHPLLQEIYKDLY
# PPARγ/RXRα heterodimer = biological target: T2, PPARγ/RXRα heterodimer (Homo sapiens, UniProt P19793+P37231); assay: PPARγ/RXRα heterodimer-induced luciferase reporter transactivation in co-transfected HEK293 cells; type: cell-based; conditions: 18 h
# T2 construct: transfected with 6 μg of full-length human PPARγ and full-length human RXRα expression plasmid, respectively or both; expressed in transfected cells; host or cells: HEK293
# T2 sequence (P37231 1-477 isoform P37231-2): T1 sequence (P37231 1-477 isoform P37231-2)
# T2 sequence (P19793 1-462): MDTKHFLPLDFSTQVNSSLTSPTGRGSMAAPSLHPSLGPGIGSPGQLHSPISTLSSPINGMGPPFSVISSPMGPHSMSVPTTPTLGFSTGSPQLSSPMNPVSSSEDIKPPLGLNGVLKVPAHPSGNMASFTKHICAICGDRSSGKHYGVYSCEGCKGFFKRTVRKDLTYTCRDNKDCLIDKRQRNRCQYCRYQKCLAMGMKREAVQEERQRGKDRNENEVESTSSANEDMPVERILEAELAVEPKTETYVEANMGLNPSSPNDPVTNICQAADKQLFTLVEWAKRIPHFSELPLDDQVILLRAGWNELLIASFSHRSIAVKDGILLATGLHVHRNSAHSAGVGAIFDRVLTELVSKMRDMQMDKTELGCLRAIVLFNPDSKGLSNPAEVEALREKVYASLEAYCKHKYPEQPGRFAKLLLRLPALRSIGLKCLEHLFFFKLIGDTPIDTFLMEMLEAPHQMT
# Source text: Luciferase activity was normalized to EGFP-derived fluorescence.
# full-length human RXRα = biological target: T3, full-length human RXRα (Homo sapiens, UniProt P19793); assay: RXRα-dependent luciferase reporter gene transactivation in HEK293 cells; conditions: HEK293, 18 h, up to 10 µM
# T3 sequence (P19793 1-462): T2 sequence (P19793 1-462)
# purified human PPARγ LBD = biological target: T4, purified human PPARγ LBD (Homo sapiens, UniProt P37231); assay: LanthaScreen TR-FRET PPARγ competitive binding assay
# T4 construct: purchased Invitrogen
# T4 sequence (P37231 238-503 limits assumed): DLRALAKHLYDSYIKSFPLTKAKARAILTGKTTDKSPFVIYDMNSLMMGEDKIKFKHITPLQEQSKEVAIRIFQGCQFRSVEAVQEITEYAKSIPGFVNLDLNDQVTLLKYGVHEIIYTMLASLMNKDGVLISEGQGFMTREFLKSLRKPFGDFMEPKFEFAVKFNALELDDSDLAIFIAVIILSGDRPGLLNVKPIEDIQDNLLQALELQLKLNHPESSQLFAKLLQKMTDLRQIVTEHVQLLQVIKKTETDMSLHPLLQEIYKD
# Method: In this assay a fluorescently labeled ligand (Fluormone, Invitrogen) is displaced upon binding of the tested compound leading to a decrease in the FRET signal. Binding to the receptor was assessed in a concentration-dependent manner. […] Compounds that bind to the PPARγ LBD displace the fluorescently labeled ligand […]. […] Data points are represented as mean ± SEM from four independent experiments performed in duplicate. […] HEK-293 cells were transfected as described in the Methods section and stimulated for 18 h, as indicated. Luciferase activity was normalized to EGFP-derived fluorescence. Results are expressed as fold induction compared with the solvent control (DMSO, 0.1%). EC50 values were calculated using a sigmoidal curve fit with variable slope. […] HEK293 cells were transfected as described in the Methods section, treated as indicated for 18 h and luciferase activity measured as under (A). All data are shown as means ± SD of at least three independent experiments performed in quadruplicate. […] The compounds were dissolved in DMSO (solvent vehicle) and incubated together with the human PPARγ LBD tagged with GST, terbium-labeled anti-GST antibody and fluorescently labeled PPAR ligand (Fluormone™ Pan-PPAR Green). Binding of a ligand results in a fluorescence resonance energy transfer (FRET) after excitation of terbium at 340 nm and in an emission at 520 nm. Test compounds binding to the human PPARγ LBD are competing with the fluorescently labeled ligand and displacing it, resulting in a decrease of the FRET signal. […] All quantifications were performed with a GeniosPro plate reader (Tecan).
# To calculate the EC50 values data were curve fitted and non-linear transformed using a sigmoidal dose response with variable slope.
# [1] = Resazurin conversion assay (cytotoxicity); type: cell-based; conditions: human, HEK293 cells, HEK293, vs DMSO 0.1%, read-out: cell viability
# Method: Assessment of cytotoxicity […]
# on cell viability assessed by the resazurin conversion assay in HEK293 cells. HEK293 cells were […]
# conversion was measured after 4 hours. Results are expressed as % cell viability compared to the solvent control DMSO (0.1%). Data are expressed as means ± SD of three independent experiments performed in quadruplicate. (One-way ANOVA, Dunnett´s test, p<0.01**). […]
# resofurin. Conversion of this non-fluorescent agent to resofurin depends on redox equivalents provided by cellular metabolism. Thus, the conversion (fluorescence signal) is direct proportional to the number of viable cells and thus to cell viability. HEK293 cells (ATCC, Manassas, VA) were seeded in 96-well plates at a density of 40,000 cells per well and incubated for 24 hours in DMEM supplemented with 2 mM glutamine, 100 U/ml benzylpenicillin, 100 μg/ml streptomycin, and 10% fetal bovine serum. Next day, cells were incubated with increasing concentrations of the indicated […]
# After 24 hours of incubation with the test compounds cells were washed again in PBS and then incubated with 10 μg/mL resazurin […]
# solution in PBS. After 4 hours plates were read on a Tecan GeniosPro plate reader using an excitation wavelength of 535 nm and an emission wavelength of 580 nm. […]
# 3T3-L1 preadipocytes = assay: Adipocyte differentiation in 3T3-L1 pre-adipocytes (Oil Red O); type: cell-based; conditions: 1–10 µM, 8 days, insulin 1 µg/mL
# Method: PPARγ plays a major role in adipocyte differentiation and in the regulation of adipose-related genes that are involved in developing the adipose phenotype. […]
# solution in PBS. After 4 hours plates were read on a Tecan GeniosPro plate reader using an excitation wavelength of 535 nm and an emission wavelength of 580 nm.
# Adipocyte differentiation in 3T3-L1 cells
# Insulin control Rosiglitazone (1 µM) […]
# dimer (1). 3T3-L1 cells were incubated in medium containing insulin (1 µg/mL) for 8 days with or […]
# µM) was used as positive control. The medium was exchanged every second day. At day 8, cells were fixed in 10% formaldehyde, stained with Oil Red O and photographed (A). Oil Red O was then […]
# solubilized and quantified at 550 nm using a plate reader (B). Lipid accumulation is expressed as fold increase compared to the insulin/solvent control (1 µg/mL insulin in 0.1 % DMSO) and is expressed as means ± SD of three independent experiments (One-way ANOVA, Bonfferoni post test, p<0.05 *). […]
# Medium was exchanged every second day. After eight days, lipid accumulation (as a measure of adipogenic differentiation) was determined by Oil Red O staining as described previously.5 For this, cells were fixed in 10% formaldehyde for 1 h and stained with Oil Red O for 10 minutes. […]
EC50 (full-length human PPARγ) [nM],"Emax PPARγ-dependent luciferase transactivation (full-length human PPARγ; HEK293, 18 h, Emax values ± SD, results as fold induction vs DMSO)","efficacy compared to pioglitazone (full-length human PPARγ; HEK293, Emax relative to full agonist pioglitazone)",fold lower potency compared to magnolol (full-length human PPARγ; ratio of EC50 values),"fold activation of PPARγ/RXRα heterodimer, co-treatment with bexarotene (PPARγ/RXRα heterodimer; 10 µM compound plus full RXR agonist bexarotene, HEK293 co-transfected) [fold]","fold activation of PPARγ/RXRα heterodimer (PPARγ/RXRα heterodimer; 10 µM, HEK293 co-transfected with PPARγ and RXRα, vs DMSO 0.2%) [fold]","Ki (purified human PPARγ LBD; competitive displacement of Fluormone Pan-PPAR Green, Cheng-Prusoff, four independent experiments in duplicate) [nM]",fold higher affinity to human PPARγ LBD compared to magnolol (purified human PPARγ LBD; ratio of Ki values),fold higher affinity to human PPARγ LBD compared to pioglitazone (purified human PPARγ LBD; ratio of Ki values),SMILES,RXRα-dependent luciferase gene expression (result in words) (full-length human RXRα),RXRα-dependent luciferase gene expression (result in words) (full-length human RXRα; listed as the dimer),"viability at 24 h, 10 µM [1] [%]","viability at 24 h, 30 µM [1] [%]",adipocyte differentiation (result in words) (3T3-L1 preadipocytes)
1520,4.67 ± 0.26,around 62%,about 1.5 fold,13.20 ± 3.98,3.82 ± 1.22,5.03,more than 12 fold,more than 16 fold,C=CCc1ccc(O)c(-c2cc(CC=CCCCc3cc(O)c(-c4cc(CC=C)ccc4O)cc3CC=C)ccc2O)c1 [magnolol dimer (1)],does not activate RXRα-dependent luciferase gene expression,did not transactivate RXRα-dependent luciferase gene expression,≥ 90,22.7 ± 5.35,induces adipocyte differentiation
,,,,,,,,,"C=CCc1ccc(O)c(-c2cc(CC=C)ccc2O)c1 [magnolol, reference compound]",,,≥ 90,9.1 ± 9.05,
